{"source": "patent US20250213585A1", "about": "“COMPOSITIONS AND METHODS OF A CONCOMITANT THERAPY OF ALTERNATING ELECTRIC FIELDS AND NOTCH-1 INHIBITOR” (NOVOCURE GMBH, priority 2023, published 2025)", "key": {"[1]": {"test_system": "cells", "test": "Combination of Notch1 inhibitor with an alternating electric field (FIGS. 4, 8)", "format": "cell-based"}, "[2]": {"test_system": "Notch1 protein", "test": "TTFields-mediated degradation of Notch1 protein with degradation pathway inhibitors (FIG. 11E)", "format": "cell-based", "details": "TTFields treatment", "source_text": "Reduction of Notch1 level by TTFields was also confirmed by immunofluorescence staining (FIGS. 11C and D). The intracellular protein degradation mechanism primarily involves proteasomal and lysosomal degradation pathways. To further elucidate the mechanism of TTFields-mediated degradation of Notch1 protein, lysosomal inhibitor Leupeptin and proteasomal inhibitor MG132 were employed (FIG. 11E). […] Lysosomal degradation of proteins, particularly those located on cell membrane such as Notch1, often involves cell membrane.\nProtein levels were evaluated through Western Blot analysis, following the established protocol. The antibodies employed in the study are listed below. Rabbit notch1 (Abcam, ab52627), Rabbit Cleaved Notch1 (CST, 4147S), Mouse anti-GAPDH (Abclonal, A19056), Rabbit anti-Tubulin (Abclonal, AC015), Rabbit anti-Hes1 (ab108937), rabbit anti-Hes5 (Abclonal A16237), rabbit anti-Hey1 (Abclonal A16110), rabbit anti-Myc (Selleck, A5011), anti-rabbit CD133 (Abcam, ab19898), anti-mouse Sox2 (Abcam, ab79351), anti-Rabbit Nestin (Abcam), and Anti-mouse lamp1."}, "[3]": {"test_system": "glioma cell lines including U87, U251, and LN229", "test": "Validation assays with TTFields in glioma cell lines (EdU incorporation, cell counting; FIGS. 10A-C)", "format": "cell-based", "experimental": "It was first analyzed whether Notch1 antagonization sensitized glioma cell lines to TTFields treatment. Validation assays were conducted across multiple glioma cell lines including U87, U251, and LN229. The Notch1 inhibitor RO4929097 was used to probe whether it synergizes with TTFields. […] In the validation assays, experimental cohorts were divided into four groups: control (DMSO), TTFields treatment alone, Notch1 inhibitor RO4929097, and TTFields plus RO4929097.\n(§1) For short-term experiments, such as detecting the degradation process of glioblastoma cells under TTFields, U87, U251, LN229, and T98 cell suspensions (450 μL, 100,000 cells per well) were evenly spread on 24 mm cell culture slides. After overnight incubation, the cells were transferred to in vitro dishes and supplemented with 2 mL fresh culture medium. The treatment frequency was 200 kHz, with a treatment field strength of 1.62 V/cm RMS, for a duration of 24 hours. For long-term combination experiments, involving the combined use of RO4929097 or Notch1 gene knockdown with TTFields, cells (450 μL, 40,000 cells per well) were treated with a field strength of 1.19 V/cm RMS and a frequency of 200 kHz for 72 hours. The concentration of RO4929097 drug was varied. For organoid experiments, 3-5 GBOs were added to each well, and fresh GBO medium was replaced. The treatment field strength was 1.19 V/cm RMS, with a frequency of 200 kHz, for treatment durations of 24 and 48 hours."}, "[4]": {"test_system": "glioma cells", "test": "Sensitization of glioma cells to temozolomide (FIGS. 7, 10E)", "format": "cell-based", "details": "Notch1 inhibitor in combination with temozolomide"}, "[5]": {"test_system": "patient-derived glioblastoma organoids (GBOs)", "test": "EdU staining of patient-derived glioblastoma organoids with TTFields (FIG. 13I)", "format": "cell-based", "experimental": "as §1"}, "[6]": {"test_system": "glioblastoma", "details": "cited from earlier work"}, "[7]": {"test_system": "U251", "test": "Cell viability of glioblastoma cell line U251 (FIGS. 6, 7)", "format": "cell-based", "experimental": "as §1"}, "[8]": {"test_system": "glioma cells", "test": "Clonogenic (colony formation) assay after treatment (FIGS. 5, 10D)", "format": "cell-based", "experimental": "as §1, with “48 hours. Following treatment with TTFields and corresponding conditions, 500-1000 cells were selected from each group and seeded in 6-well dishes. The cells were cultured at 37 degrees Celsius with 5% CO2 for a period of 7-10 days, with medium replacement every 3 days. […]” for “48 hours.”"}, "[9]": {"test_system": "U87", "test": "Cell viability of glioblastoma cell line U87 (FIGS. 6, 7)", "format": "cell-based", "experimental": "as §1"}, "[10]": {"details": "phase I and II clinical trials for glioblastoma"}, "[11]": {"details": "5 μM Notch1 inhibitor alone, FIG. 6"}, "[12]": {"details": "5 μM Notch1 inhibitor alone, FIG. 7"}, "[13]": {"details": "20 μM Notch1 inhibitor alone, FIG. 6"}, "[14]": {"details": "20 μM Notch1 inhibitor alone, FIG. 7"}, "[15]": {"details": "250 μM Temozolomide and 5 μM Notch1 inhibitor concomitant, FIG. 7"}, "[16]": {"details": "250 μM Temozolomide and 20 μM Notch1 inhibitor concomitant, FIG. 7"}, "[17]": {"details": "TTFields and 5 μM Notch1 inhibitor concomitant, FIG. 6"}, "[18]": {"details": "TTFields and 20 μM Notch1 inhibitor concomitant, FIG. 6"}}, "note": "Entries after “also recorded” stand apart in the source; their conditions may differ.", "data": [{"smiles": "C[C@H](NC(=O)Cc1cc(F)cc(F)c1)C(=O)N[C@H](C(=O)OC(C)(C)C)c1ccccc1", "note": "[DAPT]", "values": [{"measurement": "therapeutic efficacy of the alternating electric field", "setting": "[1]; DAPT combined with an alternating electric field, FIG. 8", "value": "enhances the therapeutic efficacy"}]}, {"smiles": "CC(=O)N[C@@H](CC(C)C)C(=O)N[C@@H](CC(C)C)C(=O)N[C@H](C=O)CCCNC(=N)N", "note": "[Leupeptin]", "values": [{"measurement": "effect on TTFields-induced degradation of Notch1 protein", "setting": "[2]", "value": "blocked"}]}, {"smiles": "CC(C)(C(=O)NCC(F)(F)C(F)(F)F)C(=O)N[C@@H]1C(=O)Nc2ccccc2-c2ccccc21", "note": "[RO4929097]", "values": [{"measurement": "cytotoxicity in EdU incorporation assays", "setting": "[3]; RO4929097 alone, FIGS. 10A and B", "value": "minimal cytotoxicity"}, {"measurement": "therapeutic sensitization in EdU incorporation assays", "setting": "[3]; RO4929097 combined with TTFields, FIGS. 10A and B", "value": "noticeable enhancement in therapeutic sensitization"}, {"measurement": "growth suppression by TTFields", "setting": "[3]; combined with TTFields, FIG. 10 legend", "value": "enhances growth suppression"}, {"measurement": "sensitization of alternating electric field therapy", "setting": "[1]; RO4929097 combined with an alternating electric field, low-intensity, long duration, FIGS. 4 and 5", "value": "sensitizes alternating electric field therapy"}, {"measurement": "sensitization to / killing by temozolomide (TMZ)", "setting": "[4]", "value": "did not sensitize"}, {"measurement": "sensitization to / killing by temozolomide (TMZ)", "setting": "[4]; listed as Notch1 inhibitor", "value": "no effect"}, {"measurement": "sensitization to / killing by temozolomide (TMZ)", "setting": "[4]; listed as RO", "value": "does not enhance killing"}, {"measurement": "cytotoxicity by Edu staining in GBOs", "setting": "[5]; Notch1 inhibitor alone", "value": "no apparent cytotoxicity"}, {"measurement": "effect with TTFields by Edu staining in GBOs", "setting": "[5]; combined with TTFields", "value": "clear synergistic effect"}, {"measurement": "safety profile", "setting": "[6]; glioblastoma / recurrent GB patients", "value": "favorable safety profile"}, {"measurement": "blood-brain barrier penetration", "setting": "[6]; [10]", "value": "favorable blood-brain barrier penetration"}, {"measurement": "expression of Notch1 downstream genes in tumor cells", "setting": "[6]; [10]", "value": "reduce expression of Notch1 downstream genes"}, {"measurement": "cell viability", "setting": "[7]; [11]", "value": "no change in viability"}, {"measurement": "cell viability", "setting": "[7]; [12]", "value": "no change in viability"}, {"measurement": "cell viability", "setting": "[7]; [13]", "value": "around 60%"}, {"measurement": "cell viability", "setting": "[7]; [14]", "value": "around 80%"}, {"measurement": "cell viability", "setting": "[7]; [15]", "value": "no change in viability"}, {"measurement": "cell viability", "setting": "[7]; [16]", "value": "no change in viability"}, {"measurement": "cell viability", "setting": "[7]; [17]", "value": 20, "unit": "%"}, {"measurement": "cell viability", "setting": "[7]; [18]", "value": 20, "unit": "%"}, {"measurement": "colonogenic abilities following re-seeding after treatment", "setting": "[8]; Notch1 inhibitor alone, FIG. 5", "value": "no significant impact"}, {"measurement": "clonogenic ability / long-term proliferative potential", "setting": "[8]; Notch1 inhibitor combined with TTFields / alternating electric field, re-seeding after treatment", "value": "synergy; also recorded: sensitization effect"}, {"measurement": "cell viability", "setting": "[9]; [11]", "value": 80, "unit": "%"}, {"measurement": "cell viability", "setting": "[9]; [12]", "value": "no change in viability"}, {"measurement": "cell viability", "setting": "[9]; [13]", "value": "around 60%"}, {"measurement": "cell viability", "setting": "[9]; [14]", "value": "around 80%"}, {"measurement": "cell viability", "setting": "[9]; [15]", "value": "no change in viability"}, {"measurement": "cell viability", "setting": "[9]; [16]", "value": "no change in viability"}, {"measurement": "cell viability", "setting": "[9]; [17]", "value": 20, "unit": "%"}, {"measurement": "cell viability", "setting": "[9]; [18]", "value": 20, "unit": "%"}]}, {"smiles": "Cn1nnc2c(C(N)=O)ncn2c1=O", "note": "[Temozolomide]", "values": [{"measurement": "viability at 250 µM", "setting": "[7]; Homo sapiens, U-251, 250 μM Temozolomide alone, FIG. 7", "value": 75, "unit": "%"}, {"measurement": "viability at 250 µM", "setting": "[9]; Homo sapiens, U-87 MG, 250 μM Temozolomide alone, FIG. 7", "value": 75, "unit": "%"}]}]}
